Test results published in ChEMBL document CHEMBL3813664, “Synthesis and evaluation of biphenyl derivatives as potential downregulators of VEGF protein secretion and telomerase-related gene expressions” (Bioorg Med Chem, 2016).
≈ marks a conversion by molar mass, not a printed value. Calls of active or inactive are those of the source. The calls are words filed in the database; no cut-off is given here.

Columns and labels:
HT-29 [1] = assay: Downregulation of TERT gene expression in human HT-29 cells assessed as gene expression levels at 20 ug/ml after 48 hrs by RT-qPCR analysis relative to control; type: functional
[2] = Therapeutic index, ratio of IC50 for HEK293 cells to IC50 for human MCF7 cells; type: cell-based; details: HEK293 cells versus MCF7 cells, read-out: Ratio IC50
[3] = Therapeutic index, ratio of IC50 for HEK293 cells to IC50 for human HT-29 cells; type: cell-based; details: HEK293 cells versus HT-29 cells, read-out: Ratio IC50
HEK293 = assay: Cytotoxicity against HEK293 cells assessed as reduction in cell growth after 3 days by MTT assay; type: cell-based; details: Homo sapiens, HEK293, 72 h
HT-29 [4] = assay: Downregulation of c-Myc gene expression in human HT-29 cells assessed as gene expression levels at 20 ug/ml after 48 hrs by RT-qPCR analysis relative to control; type: functional
HT-29 [5] = assay: Cytotoxicity against human HT-29 cells assessed as reduction in cell growth after 3 days by MTT assay; type: functional, cell-based; details: HT-29, 72 h
MCF7 = assay: Cytotoxicity against human MCF7 cells assessed as reduction in cell growth after 3 days by MTT assay; type: functional, cell-based; details: MCF7, 72 h
HT-29 [6] = assay: Downregulation of VEGFA-165 secretion in human HT-29 cells assessed as protein secretion levels at 20 ug/ml after 72 hrs by ELISA relative to control; type: functional
HT-29 [7] = assay: Downregulation of VEGFA gene expression in human HT-29 cells assessed as gene expression levels at 20 ug/ml after 48 hrs by RT-qPCR analysis relative to control; type: functional
HT-29 [8] = assay: Downregulation of c-Myc gene expression in human HT-29 cells assessed as gene expression levels at 10 ug/ml after 48 hrs by RT-qPCR analysis relative to control; type: functional
HT-29 [9] = assay: Downregulation of TERT gene expression in human HT-29 cells assessed as gene expression levels at 10 ug/ml after 48 hrs by RT-qPCR analysis relative to control; type: functional
HT-29 [10] = assay: Downregulation of VEGFA-165 secretion in human HT-29 cells assessed as protein secretion levels at 10 ug/ml after 72 hrs by ELISA relative to control; type: functional
HT-29 [11] = assay: Downregulation of VEGFA gene expression in human HT-29 cells assessed as gene expression levels at 10 ug/ml after 48 hrs by RT-qPCR analysis relative to control; type: functional
HT-29 [12] = assay: Downregulation of c-Myc gene expression in human HT-29 cells assessed as gene expression levels at 5 ug/ml after 48 hrs by RT-qPCR analysis relative to control; type: functional
HT-29 [13] = assay: Downregulation of VEGFA gene expression in human HT-29 cells assessed as gene expression levels at 5 ug/ml after 48 hrs by RT-qPCR analysis relative to control; type: functional
HT-29 [14] = assay: Downregulation of VEGFA-165 secretion in human HT-29 cells assessed as protein secretion levels at 5 ug/ml after 72 hrs by ELISA relative to control; type: functional
HT-29 [15] = assay: Downregulation of TERT gene expression in human HT-29 cells assessed as gene expression levels at 5 ug/ml after 48 hrs by RT-qPCR analysis relative to control; type: functional
HT-29 [16] = assay: Downregulation of VEGFA-165 secretion in human HT-29 cells assessed as protein secretion levels at <1.1 ug/ml after 72 hrs by ELISA relative to control; type: functional, cell-based
HT-29 [17] = assay: Downregulation of VEGFA-165 secretion in human HT-29 cells assessed as protein secretion levels at 30 ug/ml after 72 hrs by ELISA relative to control; type: functional
HT-29 [18] = assay: Downregulation of VEGFA gene expression in human HT-29 cells assessed as gene expression levels at 30 ug/ml after 48 hrs by RT-qPCR analysis relative to control; type: functional
HT-29 [19] = assay: Downregulation of TERT gene expression in human HT-29 cells assessed as gene expression levels at 30 ug/ml after 48 hrs by RT-qPCR analysis relative to control; type: functional
HT-29 [20] = assay: Downregulation of c-Myc gene expression in human HT-29 cells assessed as gene expression levels at 30 ug/ml after 48 hrs by RT-qPCR analysis relative to control; type: functional

SMILES | Activity (HT-29 [1]) | selectivity ratio [2] | selectivity ratio [3] | IC50 (HEK293) | Activity (HT-29 [4]) | IC50 (HT-29 [5]) | IC50 (MCF7) | Activity (HT-29 [6]) | Activity (HT-29 [7]) | Activity (HT-29 [12]) | Activity (HT-29 [13]) | Activity (HT-29 [14]) | Activity (HT-29 [15]) | further results
Oc1ccc(-c2ccccc2)cc1 | 81% | 1 | 2 | 45 µg/mL (≈ 264 µM) | 55% | 25 µg/mL (≈ 147 µM) | 47 µg/mL (≈ 276 µM) | 48% | 65% | – | – | – | – | –
COc1cccc(-c2cccc(O)c2)c1 | – | 1 | 2 | 34 µg/mL (≈ 170 µM) | – | 16 µg/mL (≈ 79.9 µM) | 33 µg/mL (≈ 165 µM) | – | – | – | – | – | – | Activity (HT-29 [8]): 71%; Activity (HT-29 [9]): 88%; Activity (HT-29 [10]): 31%; Activity (HT-29 [11]): 21%
COc1cccc(-c2ccccc2)c1 | – | 0.1 | 5.1 | 5.5 µg/mL (≈ 29.9 µM) | – | 1.1 µg/mL (≈ 5.97 µM) | 47 µg/mL (≈ 255 µM) | – | – | 81% | 73% | 57% | 77% | Activity (HT-29 [16]): inactive
COc1ccc(-c2ccc(O)cc2)cc1OC | 22% | > 3 | > 4 | > 100 µg/mL | 87% | 26 µg/mL (≈ 113 µM) | 34 µg/mL (≈ 148 µM) | 55% | 41% | – | – | – | – | –
C=CCc1ccc(O)c(-c2ccc(O)c(CC=C)c2)c1 [HONOKIOL] | – | 1.9 | 1.5 | 9.3 µg/mL (≈ 34.9 µM) | – | – | 5 µg/mL (≈ 18.8 µM) | – | – | 45% | 36% | 55% | 45% | –
COc1ccc(-c2ccccc2O)c(OC)c1 | – | – | > 3 | > 100 µg/mL | – | 33.7 µg/mL (≈ 146 µM) | > 100 µg/mL | – | – | – | – | – | – | Activity (HT-29 [17]): 29%; Activity (HT-29 [18]): 56%; Activity (HT-29 [19]): 29%; Activity (HT-29 [20]): 54%
